Columns and labels:
Format in all cases: in vivo
[1] = tested on: Echinochloa crus-galli; assay: Test Example 1: herbicidal effect test by treatment of rice paddy soil (immediately after seeding); conditions: 120 g/10a active ingredient, dry weight vs untreated area, 14 days after treatment
Outline: (§1)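 Puddled, fertilized (N:P:K=17:17:17) paddy soil in Wagner pots; seeds sown 0–1 cm deep, flooded to about 3 cm. Emulsifiable formulations diluted in water and dropped into the water immediately after seeding at 120 g active ingredient per 10 ares; greenhouse. Herbicidal rate from dry weight vs untreated at 14 days.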

[2] = tested on: broad leaf weeds (Lindernia pyxidaria and Monochoria vaginalis); assay: as above; conditions: 120 g/10a active ingredient, dry weight vs untreated area, 14 days after treatment
Outline: as §1

[3] = tested on: Scirpus juncoides; assay: as above; conditions: 120 g/10a active ingredient, dry weight vs untreated area, 14 days after treatment
Outline: as §1

[4] = tested on: Amaranthus viridis; assay: Test Example 4: herbicidal effect test by treatment of leave and stem in dry field farming (seven days after seeding); conditions: 120 g/10a active ingredient; emulsion sprayed seven days after seeding; evaluated 14 days after treatment
Outline: (§2)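 Weeds were seeded at 20 seeds per species into the top 1 cm of alluvial upland soil in pots, then sprayed 7 days after seeding with water-diluted emulsifiable concentrate at 100 L/10 a, giving 120 g active ingredient/10 a. Duplicate pots; herbicidal rate (%) was 14 days post-treatment, from dry weight versus untreated.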

[5] = tested on: southern crabgrass; assay: as above; conditions: 120 g/10a active ingredient; emulsion sprayed seven days after seeding; evaluated 14 days after treatment
Outline: as §2

[6] = tested on: Echinochloa crus-galli; assay: as above; conditions: 120 g/10a active ingredient; emulsion sprayed seven days after seeding; evaluated 14 days after treatment
Outline: as §2

[7] = tested on: Chenopodium album; assay: as above; conditions: 120 g/10a active ingredient; emulsion sprayed seven days after seeding; evaluated 14 days after treatment
Outline: as §2

[8] = tested on: Amaranthus viridis; assay: Test Example 3: herbicidal effect test by treatment of dry field farming soil (one day after seeding); conditions: 120 g/10a active ingredient, evaluated 14 days after treatment
Outline: (§3)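 Pre-emergence soil treatment: alluvial dry-field soil, 20 seeds per species mixed into top 1 cm, emulsion diluted in water sprayed one day after seeding at 100 L per 10 ares (120 g active ingredient per 10 ares). Duplicate pots; herbicidal rate (%) from dry weight vs untreated at 14 days.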

[9] = tested on: southern crabgrass; assay: as above; conditions: 120 g/10a active ingredient, evaluated 14 days after treatment
Outline: as §3

[10] = tested on: Echinochloa crus-galli; assay: as above; conditions: 120 g/10a active ingredient, evaluated 14 days after treatment
Outline: as §3

[11] = tested on: Chenopodium album; assay: as above; conditions: 120 g/10a active ingredient, evaluated 14 days after treatment
Outline: as §3

[12] = tested on: Echinochloa crus-galli; assay: Test Example 2: herbicidal effect test by treatment during growing period in paddy rice cultivation (seven days after seeding); conditions: 120 g/10a active ingredient, assessed 14 days after treatment, dry weight vs untreated area
Outline: (§4)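 Paddy soil in Wagner pots with compound fertilizer, puddled; 30 seeds per species sown at 0–1 cm, flooded ~3 cm, greenhouse. Seven days after seeding, water-diluted emulsions were dropped into the water at 120 g active ingredient per 10 ares. Duplicate pots; herbicidal rate from dry weight versus untreated, 14 days after treatment.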

[13] = tested on: broad leaf weeds (Lindernia pyxidaria and Monochoria vaginalis); assay: as above; conditions: 120 g/10a active ingredient, assessed 14 days after treatment, dry weight vs untreated area
Outline: as §4

[14] = tested on: Scirpus juncoides; assay: as above; conditions: 120 g/10a active ingredient, assessed 14 days after treatment, dry weight vs untreated area
Outline: as §4

SMILES	Herbicidal rate (%) Echinochloa crus-galli [1] [%]	Herbicidal rate (%) Lindernia pyxidaria [2] [%]	Herbicidal rate (%) Monochoria vaginalis [2] [%]	Herbicidal rate (%) Scirpus juncoides [3] [%]	herbicidal effect (herbicidal rate), Amaranthus viridis [4] [%]	herbicidal effect (herbicidal rate), southern crabgrass [5] [%]	herbicidal effect (herbicidal rate), Echinochloa crus-galli [6] [%]	herbicidal effect (herbicidal rate), Chenopodium album [7] [%]	herbicidal rate, Amaranthus viridis [8] [%]	herbicidal rate, southern crabgrass [9] [%]	herbicidal rate, Echinochloa crus-galli [10] [%]	herbicidal rate, Chenopodium album [11] [%]	Herbicidal rate (%) Echinochloa crus-galli [12] [%]	Herbicidal rate (%) Lindernia pyxidaria [13] [%]	Herbicidal rate (%) Monochoria vaginalis [13] [%]	Herbicidal rate (%) Scirpus juncoides [14] [%]
CCC(C)Cn1oc(=O)c(Cc2ccccc2N(C(=O)OCc2ccccc2)S(=O)(=O)C(F)(F)F)c1C (single isomer, unassigned) [1-789 (TLC bottom)]	100	90	90	90	60	50	50	40	70	60	90	80	100	60	90	90
C=CCOC(=O)N(c1ccccc1Cc1c(C)n(C(C)CC)oc1=O)S(=O)(=O)C(F)(F)F (stereo not shown) [Compound 1-706]	90	90	90	90	40	90	90	40	90	90	90	90	90	90	90	90
Cc1c(Cc2cc(Cl)ccc2NS(=O)(=O)C(F)(F)F)c(=O)on1C(C)C [Compound 1-41]	100	100	100	100	60	90	90	90	0	90	90	50	90	90	80	60
C=CCOC(=O)N(c1ccccc1Cc1c(C)n(C(C)COC)oc1=O)S(=O)(=O)C(F)(F)F (stereo not shown) [Compound 1-708]	90	90	90	90	40	90	90	40	90	90	90	90	90	90	90	90
CCC(C)n1oc(=O)c(Cc2ccccc2N(C(=O)CC(C)C)S(=O)(=O)C(F)(F)F)c1C (stereo not shown) [Compound 1-352]	90	90	90	90	40	90	90	40	90	90	90	90	90	90	90	90
COC(=O)N(c1ccccc1Cc1c(C)n(CC(C)C)oc1=O)S(=O)(=O)C(F)(F)F [Compound 1-580]	90	90	90	90	40	90	90	40	90	90	90	90	90	90	90	90
Cc1c(Cc2ccccc2N(C(=O)CC(C)C)S(=O)(=O)C(F)(F)F)c(=O)on1C(C)c1ccccc1 (stereo not shown) [Compound 1-359]	90	90	90	90	40	90	90	40	90	90	90	90	90	90	90	90
C=CCn1oc(=O)c(Cc2ccccc2N(S(=O)(=O)C(F)(F)F)S(=O)(=O)C(F)(F)F)c1C [Compound 1-985]	90	100	70	90	60	60	90	60	80	70	70	80	90	60	60	60
CCC(C)Cn1oc(=O)c(Cc2ccccc2N(C(=O)OC)S(=O)(=O)C(F)(F)F)c1C (stereo not shown) [Compound 1-583]	100	90	90	90	50	60	80	50	60	90	100	50	100	80	90	90
CCC(c1ccccc1)n1oc(=O)c(Cc2ccccc2N(S(=O)(=O)C(F)(F)F)S(=O)(=O)C(F)(F)F)c1C (stereo not shown) [Compound 1-1038]	90	90	90	90	40	60	90	40	0	90	90	0	90	60	80	90
